The record followed here is patent US8901118B2, “Compounds and methods for kinase modulation, and indications therefor” (Plexxikon Inc., priority 2010, dated 2014).

The test system of one experiment is SKNSH cells. Briefly: SKNSH (human neuroblastoma) cell proliferation assay (ATPlite). The format is cell-based. The conditions noted are these: SK-N-SH, read-out: Inhibition of Cell Proliferation IC50, SKNSH. The procedure: Compounds are assessed in a variety of cell based assays. For example BaF3 cells engineered with any of BCR-FMS, BCR-KIT, BCR-FLT3, BCR-NTRK1, BCR-NTRK2, and BCR-NTRK3, are used in cell proliferation assays to assess inhibitory activity of Fms, Kit, Flt-3, TrkA, TrkB, and TrkC, respectively. An MV-4-11 (leukemia) cell proliferation assay is used to assess inhibitory activity in Flt-3, and SKNSH (human neuroblastoma) cell proliferation assay is used to assess efficacy of Fms/Trk inhibitors. Additional cells may be assayed similarly to assess the efficacy of Fms/Trk inhibitors, such as MiaPaCa (human pancreatic cancer) and Capan-1 (human pancreatic carcinoma) cells. Reagent and assay conditions are as follows: • BaF3 cells: • Maintained in RPMI containing 10% FBS, 1% PenStrep, 1% NEAA, and 1% L-Glutamine, supplemented with 1 mg/mL G418 and 5% WEHI-CM (or recombinant murine IL-3). • Confluent cells are split 1:50 to 1:100 every 3-4 days. • MV-4-11 cells: • Maintained in Iscove's Modified Dulbecco's Medium containing 10% FBS. • Confluent cells are split 1:4 every 3-4 days. • SKNSH cells: RPMI containing 10% FBS. On day 1, cells are counted, then centrifuged in a conical tube for 5 minutes at 1000 rpm. The supernatant is removed and cells are re-suspended as follows: • BaF3: resuspend in growth media +1 mg/mL G418 (without WEHFIL-3) to 2×10^5 cells/mL. • MV-4-11: resuspend in growth media to 5×10^5 cells/mL. • SKNSH: resuspend in growth media to 2×10^4 cells/mL. The cells are plated (50 μL, 150 μL for SKNSH cells) in each well of a 96-well dish (Corning 3610) and incubated at 37° C. in 5% CO2 overnight, cells plated to a final concentration of cells as follows: • BaF3: 10,000 cells per well. • MV-4-11: 25,000 cells per well. • SKNSH: 3,000 cells per well. On day 2, compound at a maximum concentration of 5 mM is serially diluted 1:3 for a total of 8 point titration with DMSO as a control. A 1 μL aliquot of each dilution point is added to 249 μL growth media and 50 μL is added to a well containing cells, providing 10 μM compound for the maximum concentration point. The cells are incubated for 3 days at 37° C. in 5% CO2. For SKNSH cells, a 0.75 μL aliquot of appropriate dilution in DMSO is added to 150 μL of cells. On day 5, ATPlite 1 step Luminescence Assay System (Perkin Elmer #6016739) is brought to room temperature along with the cell cultures. ATPlite is added to each well as follows: • BaF3: 25 μL per well. • MV-4-11: 40 μL per well. • SKNSH: 20 μL per well. The cells are incubated at room temperature for 10 minutes, then luminescence is read on Safire reader. The measured luminescence correlates directly with cell number, such that the reading as a function of compound concentration is used to determine the IC50 value.
It is understood that the results of these assays may vary as assay conditions are varied. Inhibition levels determined under the conditions described herein represent a relative activity for the compounds tested under the specific conditions employed. The cell based assays are likely to show variability due to the complexity of the system and the sensitivity thereof to any changes in the assay conditions. […] Results for compounds that are tested and show substantially no inhibition below the highest tested concentration are represented as “-” in the tables below. In some instances, the compounds were not tested in all of the assays, or assay results were not valid, as indicated by NA in the tables below.
(In ATP-based viability assays light output follows the ATP content of the culture.)

A further experiment has as its target T1, BCR-FMS BaF3 cells (Homo sapiens, UniProt P07333).
T1 construct: fused on or other part: P11274 (Breakpoint cluster region protein)
T1 sequence (P07333 582-910): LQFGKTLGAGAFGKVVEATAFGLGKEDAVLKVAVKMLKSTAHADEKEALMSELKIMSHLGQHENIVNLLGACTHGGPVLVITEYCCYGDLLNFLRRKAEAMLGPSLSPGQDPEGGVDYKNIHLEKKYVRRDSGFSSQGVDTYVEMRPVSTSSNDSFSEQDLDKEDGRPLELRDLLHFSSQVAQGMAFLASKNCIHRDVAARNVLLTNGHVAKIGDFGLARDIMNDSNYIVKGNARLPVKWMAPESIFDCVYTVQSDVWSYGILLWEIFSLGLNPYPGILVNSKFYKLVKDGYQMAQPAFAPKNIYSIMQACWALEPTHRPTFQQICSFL
Briefly: BaF3 BCR-FMS cell proliferation assay (ATPlite). It is filed as cell-based. The note with it: read-out: Inhibition of Cell Proliferation IC50, BCR/BaF3 Fms. Put shortly: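 BaF3 cells expressing BCR fusions were plated at 10,000 cells/well without IL-3, and MV-4-11 cells at 25,000 cells/well. Cells were treated the next day with an 8-point 1:3 dilution series (top 10 μM final) and incubated 3 days at 37 °C. ATPlite luminescence gave cell number, from which IC50 was fitted.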

A further experiment addresses Fms kinase (Homo sapiens, UniProt P07333). The experiment in a line: Fms kinase biochemical activity assay (AlphaScreen, biotin-(E4Y)10 phosphorylation). The conditions noted are these: 100 μM ATP; read-out: Biochemical Inhibition IC50 Fms. In a few lines:
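Fms kinase (1 ng/well) phosphorylating 30 nM biotin-(E4Y)10 with 100 μM ATP in 25 mM Hepes pH 7.5, MgCl2/MnCl2, 5% DMSO, 20 min at 30 °C. Phosphotyrosine detected by AlphaScreen streptavidin donor and PY20 acceptor beads; IC50 from signal versus compound concentration.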

pIC50: −log10 of the molar value.

Sequence of Fms kinase (P07333 20-972): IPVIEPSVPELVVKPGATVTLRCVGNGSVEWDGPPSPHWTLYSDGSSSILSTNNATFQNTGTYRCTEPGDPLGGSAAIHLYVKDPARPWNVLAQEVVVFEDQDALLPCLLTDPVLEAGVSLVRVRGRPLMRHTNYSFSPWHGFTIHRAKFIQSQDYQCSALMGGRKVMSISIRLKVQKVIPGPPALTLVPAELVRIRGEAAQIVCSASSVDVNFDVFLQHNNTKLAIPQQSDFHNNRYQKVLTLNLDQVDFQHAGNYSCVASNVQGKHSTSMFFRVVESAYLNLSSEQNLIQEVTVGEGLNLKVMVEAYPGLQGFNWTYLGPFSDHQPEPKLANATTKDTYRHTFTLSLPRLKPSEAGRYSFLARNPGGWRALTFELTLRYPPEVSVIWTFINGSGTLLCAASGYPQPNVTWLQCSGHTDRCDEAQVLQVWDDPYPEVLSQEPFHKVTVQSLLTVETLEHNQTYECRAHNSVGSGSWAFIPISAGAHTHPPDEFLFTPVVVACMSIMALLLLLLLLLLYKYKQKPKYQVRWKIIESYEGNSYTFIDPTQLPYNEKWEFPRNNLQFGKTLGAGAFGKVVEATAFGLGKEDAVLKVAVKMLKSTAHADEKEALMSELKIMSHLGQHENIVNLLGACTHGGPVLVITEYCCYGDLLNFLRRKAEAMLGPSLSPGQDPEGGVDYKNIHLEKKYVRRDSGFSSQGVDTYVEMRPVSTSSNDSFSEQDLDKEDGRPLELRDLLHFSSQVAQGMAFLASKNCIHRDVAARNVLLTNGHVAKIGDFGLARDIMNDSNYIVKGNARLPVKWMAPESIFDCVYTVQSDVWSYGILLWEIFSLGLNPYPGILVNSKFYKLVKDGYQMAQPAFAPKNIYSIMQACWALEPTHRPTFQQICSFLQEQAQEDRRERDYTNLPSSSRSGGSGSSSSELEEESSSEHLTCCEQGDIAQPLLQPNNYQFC

With `CNc1ncnc2[nH]cc(C(=O)c3ccc(NC4CCC(F)(F)CC4)nc3Cl)c12` [Compound P-4058, [2-chloro-6-[(4,4-difluorocyclohexyl)amino]-3-pyridyl]-[4-(methylamino)-7H-pyrrolo[2,3-d]pyrimidin-5-yl]methanone], the figures for the pIC50 in the experiment with SKNSH cells, on BCR-FMS BaF3 cells and at Fms kinase were greater than 5.00, greater than 7.00 and greater than 7.00, respectively.

For `CCc1ccc(Nc2ccc(C(=O)c3c[nH]c4ncnc(NC5CCC5)c34)c(F)n2)cn1` [Compound P-4095, [4-(cyclobutylamino)-7H-pyrrolo[2,3-d]pyrimidin-5-yl]-[6-[(6-ethyl-3-pyridyl)amino]-2-fluoro-3-pyridyl]methanone], the pIC50 with SKNSH cells was greater than 6.00; on BCR-FMS BaF3 cells, greater than 8.00; at Fms kinase, greater than 8.00.

As to `O=C(c1ccc(NC2CCC(F)(F)CC2)nc1Cl)c1c[nH]c2ncnc(NC3CC3)c12` [Compound P-4059, [2-chloro-6-[(4,4-difluorocyclohexyl)amino]-3-pyridyl]-[4-(cyclopropylamino)-7H-pyrrolo[2,3-d]pyrimidin-5-yl]methanone], the pIC50 is greater than 6.00 with SKNSH cells, greater than 7.00 on BCR-FMS BaF3 cells and greater than 7.00 at Fms kinase.

For the compound `CNc1ncnc2[nH]cc(C(=O)c3ccc(Nc4ccc(C(F)(F)F)nc4)nc3F)c12` [Compound P-4092, [2-fluoro-6-[[6-(trifluoromethyl)-3-pyridyl]amino]-3-pyridyl]-[4-(methylamino)-7H-pyrrolo[2,3-d]pyrimidin-5-yl]methanone], the pIC50 is greater than 6.00 in the experiment with SKNSH cells, greater than 8.00 at BCR-FMS BaF3 cells and greater than 8.00 on Fms kinase.

Regarding `CCc1ccc(Nc2ccc(C(=O)c3c[nH]c4ncnc(NC5CCCC5)c34)c(F)n2)cn1` [Compound P-4099, [4-(cyclopentylamino)-7H-pyrrolo[2,3-d]pyrimidin-5-yl]-[6-[(6-ethyl-3-pyridyl)amino]-2-fluoro-3-pyridyl]methanone], the values for the pIC50 with SKNSH cells, at BCR-FMS BaF3 cells and at Fms kinase were greater than 6.00, greater than 8.00 and greater than 7.00, respectively.

As to `CCCNc1ncnc2[nH]cc(C(=O)c3ccc(Nc4cncc(OC)c4)nc3F)c12` [Compound P-4105, [2-fluoro-6-[(5-methoxy-3-pyridyl)amino]-3-pyridyl]-[4-(propylamino)-7H-pyrrolo[2,3-d]pyrimidin-5-yl]methanone], the values for the pIC50 in the experiment with SKNSH cells, at BCR-FMS BaF3 cells and at Fms kinase were greater than 5.00, greater than 7.00 and greater than 7.00, respectively.

For the compound `COc1cncc(Nc2ccc(C(=O)c3c[nH]c4ncnc(NC(C)C)c34)c(F)n2)c1` [Compound P-4106, [2-fluoro-6-[(5-methoxy-3-pyridyl)amino]-3-pyridyl]-[4-(isopropylamino)-7H-pyrrolo[2,3-d]pyrimidin-5-yl]methanone], the figures for the pIC50 with SKNSH cells, on BCR-FMS BaF3 cells and at Fms kinase were greater than 6.00, greater than 7.00 and greater than 7.00, respectively.

Turning to `COc1cncc(Nc2ccc(C(=O)c3c[nH]c4ncnc(NC5CC5)c34)c(F)n2)c1` [Compound P-4107, [4-(cyclopropylamino)-7H-pyrrolo[2,3-d]pyrimidin-5-yl]-[2-fluoro-6-[(5-methoxy-3-pyridyl)amino]-3-pyridyl]methanone], the pIC50 in the experiment on SKNSH cells was greater than 6.00; at BCR-FMS BaF3 cells it was greater than 7.00; at Fms kinase, greater than 7.00.

As to `CC(C)Nc1ncnc2[nH]cc(C(=O)c3ccc(NC4CCCCC4)nc3Cl)c12` [Compound P-4109, [2-chloro-6-(cyclohexylamino)-3-pyridyl]-[4-(isopropylamino)-7H-pyrrolo[2,3-d]pyrimidin-5-yl]methanone], the pIC50 in the experiment on SKNSH cells was greater than 5.00; at BCR-FMS BaF3 cells, greater than 7.00; on Fms kinase it was greater than 7.00.

Turning to `O=C(c1ccc(NC2CCC(F)(F)CC2)nc1F)c1c[nH]c2ncnc(NC3CC3)c12` [Compound P-4062, [4-(cyclopropylamino)-7H-pyrrolo[2,3-d]pyrimidin-5-yl]-[6-[(4,4-difluorocyclohexyl)amino]-2-fluoro-3-pyridyl]methanone], the figures for the pIC50 in the experiment with SKNSH cells, on BCR-FMS BaF3 cells and on Fms kinase were greater than 6.00, greater than 7.00 and greater than 8.00, respectively.

Regarding `CNc1ncnc2[nH]cc(C(=O)c3ccc(NC4CCC(F)(F)CC4)nc3)c12` [Compound P-4089, [6-[(4,4-difluorocyclohexyl)amino]-3-pyridyl]-[4-(methylamino)-7H-pyrrolo[2,3-d]pyrimidin-5-yl]methanone], the results for the pIC50 in the experiment on SKNSH cells, at BCR-FMS BaF3 cells and at Fms kinase were greater than 5.00, greater than 7.00 and greater than 7.00, respectively.

Take `CCNc1ncnc2[nH]cc(C(=O)c3ccc(Nc4ccc(CC)nc4)nc3F)c12` [Compound P-4123, [4-(ethylamino)-7H-pyrrolo[2,3-d]pyrimidin-5-yl]-[6-[(6-ethyl-3-pyridyl)amino]-2-fluoro-3-pyridyl]methanone]: the pIC50 is greater than 7.00 in the experiment with SKNSH cells, greater than 8.00 at BCR-FMS BaF3 cells and greater than 8.00 at Fms kinase.

On to `CCc1ccc(Nc2ccc(C(=O)c3c[nH]c4ncnc(N[C@@H](C)c5ccc(F)cc5)c34)c(F)n2)cn1` [Compound P-4097, [6-[(6-ethyl-3-pyridyl)amino]-2-fluoro-3-pyridyl]-[4-[[(1S)-1-(4-fluorophenyl)ethyl]amino]-7H-pyrrolo[2,3-d]pyrimidin-5-yl]methanone], for which the pIC50 in the experiment on SKNSH cells is greater than 5.00; at BCR-FMS BaF3 cells it was greater than 7.00; on Fms kinase, greater than 6.00.

As to `CCc1ccc(Nc2ccc(C(=O)c3c[nH]c4ncnc(NC5CCC(F)(F)CC5)c34)c(F)n2)cn1` [Compound P-4096, [4-[(4,4-difluorocyclohexyl)amino]-7H-pyrrolo[2,3-d]pyrimidin-5-yl]-[6-[(6-ethyl-3-pyridyl)amino]-2-fluoro-3-pyridyl]methanone], the values for the pIC50 with SKNSH cells, at BCR-FMS BaF3 cells and on Fms kinase were greater than 5.00, greater than 8.00 and greater than 7.00, respectively.

With `CCc1ccc(Nc2ccc(C(=O)c3c[nH]c4ncnc(NCCCOC)c34)c(F)n2)cn1` [Compound P-4098, [6-[(6-ethyl-3-pyridyl)amino]-2-fluoro-3-pyridyl]-[4-(3-methoxypropylamino)-7H-pyrrolo[2,3-d]pyrimidin-5-yl]methanone], the pIC50 with SKNSH cells was greater than 5.00; at BCR-FMS BaF3 cells it was greater than 7.00; at Fms kinase, greater than 8.00.

In the case of `CCNc1ncnc2[nH]cc(C(=O)c3ccc(Nc4ccc(C5CC5)nc4)nc3F)c12` [Compound P-4060, [6-[(6-cyclopropyl-3-pyridyl)amino]-2-fluoro-3-pyridyl]-[4-(ethylamino)-7H-pyrrolo[2,3-d]pyrimidin-5-yl]methanone], the pIC50 with SKNSH cells was greater than 7.00; at BCR-FMS BaF3 cells, greater than 8.00; at Fms kinase it was greater than 8.00.
